Laboratory results: patent publication US20120028897A1, “METHODS AND COMPOSITIONS FOR THE TREATMENT OF FLUID RETENTION DISORDERS” (priority 2008, published 2012)
pEC50: −log10 of the molar value.

What was measured:
[1] = tested on: anesthetized rats; assay: Renal sodium excretion during and after iv peptide infusion in anesthetized rats; type: in vivo, rat
Procedure: (§1) Rats were not fasted prior to clearance experiments and ranged in weight from 250-340 g at the time of study. Anesthesia was induced with an intraperitoneal injection of pentobarbital sodium (55 mg/kg BW) and maintained at a surgical plane by intermittent intravenous supplementation. Core temperature was maintained at 37° C. by a servo-controlled, heated operating table. Animals breathed spontaneously through a PE240 cannula inserted into the trachea. A jugular vein was catheterized with PE50 cannula tubing for intravenous infusion of isotonic saline containing FITC-labeled inulin (0.4% W/V, Sigma, St Louis Mo.) and two PE10 cannulae, one for supplemental anesthetic and the other for peptide infusions (described below in the experimental protocol section). The ureters were exposed through a midline ventral incision and cannulated with PE10 tubing about one cm from each kidney. Urine was collected over 20 min periods and the volume estimated by weight. A femoral artery was cannulated with PE50 tubing for continuous measurement of arterial blood pressure and intermittent blood samples (50 μl), taken at the mid point of each urine collection.
All rats received a continuous intravenous infusion (10 μl/min/100 g BW) of isotonic saline containing FITC-labeled inulin for measurement of inulin clearance. Uncongugated FITC label and small inulin polymers were removed from the inulin solution by overnight dialysis against isotonic saline (SpectraPor 6 dialysis membrane, 1 kDa cutoff-limit, Spectrum Laboratories, Rancho Domingo, Calif.). Undissolved particulates were removed from the solution by filtration through a […] filter before each experiment (Steriflip, Millipore Inc. Billerica, Mass.). At least one hr was allowed for equilibration before the start of urine collections, at which point plasma inulin concentration had stabilized at an average value of 30±3 μg/ml.
(§2) Arterial blood pressure was measured with a pressure transducer connected to a cardiovascular analyzer (Model 50110, Stoelting Instruments Wood Dale, Ill.). Left renal blood flow was measured in some rats with a flow probe positioned on the left renal artery and connected to a blood flow monitor (model 1 PRB probe and model T420 monitor, Transonic Systems Inc. Ithaca N.Y.). Arterial pressure, heart rate, and renal blood flow were digitized with an A/D converter (Keithley instruments, Cleveland, Ohio Model KUSB 3100) for display and storage on a Windows-based personal computer using open layers data acquisition software (Dtx_Ez, Data Translation Inc, Marlboro, Mass.). Sodium and potassium concentrations in plasma and urine were measured by flame photometry (Model 943, Instrumentation Laboratory Co., Lexington Mass.). Glomerular filtration rate (GFR) was measured as the renal clearance rate of FITC-labeled inulin
(§3) After post-surgical equilibration (−60 min) and three 20 min control clearance periods, huUgnA or B was infused into the jugular vein at 10 μl/min over a 60 min period, followed by a return to isotonic saline for the remainder of the experiment. The infused doses of huUgnA were 12, 25, 50, 100, or 200 nmol/kg BW in a total of 38 rats; huUgnB doses were 9, 18, 35, 70, and 140 nmol/kg BW in 35 rats. A UgnA mimetic, E. coli STh (ST-core), was infused into a third group of 32 rats at doses of 17, 32, 66, 133, and 266 nmol/kg. Renal excretory responses to these infusions were slow to develop and long lasting, so clearance periods were continued for 2-3 hr after the termination of the peptide infusion. This protracted time course limited protocols to one dose of one peptide in each rat. A control group of 10 rats received isotonic saline at 10 μl/min in place of the peptide infusion, but was otherwise treated in the same way as the experimental groups.
The effects of combined infusions of huUgnA and B were investigated in two groups of rats that received 35 nmol/kg of huUgnB together with either 25 nmol/kg (n=5) or 100 nmol/kg of huUgnA (n=5). […]

[2] = target: cultured GC-C-expressing cells (Homo sapiens, UniProt P25092); conditions: read-out: EC50, cGMP responses; cited from earlier work
[3] = tested on: anesthetized rats; assay: Renal potassium excretion during and after iv peptide infusion in anesthetized rats; type: in vivo, rat
Procedure: as §1, §2, §3
Sodium and potassium excretion rates are expressed as absolute values (UNaV and UKV) or factored by filtered load to provide fractional excretion (FENa and FEK). Glomerular filtration rate (GFR) was equated with inulin clearance. The net natriuretic response to peptide infusions was assessed by summing total Na excretion during infusion and post-infusion collection periods in each rat after subtraction of corresponding mean values obtained from the control group. The cumulative net excretion obtained in this way provides a measure of the natriuretic response to each dose of peptide infused. Results from both kidneys were averaged for each rat before calculating group means±sem.
Group comparisons were made with one way analysis of variance (ANOVA) using peptide doses as column variables. […]

[4] = huUgnA 25 nmol, Post-infuse, *** p<0.005 vs time control

Chain of cultured GC-C-expressing cells (P25092 24-1073): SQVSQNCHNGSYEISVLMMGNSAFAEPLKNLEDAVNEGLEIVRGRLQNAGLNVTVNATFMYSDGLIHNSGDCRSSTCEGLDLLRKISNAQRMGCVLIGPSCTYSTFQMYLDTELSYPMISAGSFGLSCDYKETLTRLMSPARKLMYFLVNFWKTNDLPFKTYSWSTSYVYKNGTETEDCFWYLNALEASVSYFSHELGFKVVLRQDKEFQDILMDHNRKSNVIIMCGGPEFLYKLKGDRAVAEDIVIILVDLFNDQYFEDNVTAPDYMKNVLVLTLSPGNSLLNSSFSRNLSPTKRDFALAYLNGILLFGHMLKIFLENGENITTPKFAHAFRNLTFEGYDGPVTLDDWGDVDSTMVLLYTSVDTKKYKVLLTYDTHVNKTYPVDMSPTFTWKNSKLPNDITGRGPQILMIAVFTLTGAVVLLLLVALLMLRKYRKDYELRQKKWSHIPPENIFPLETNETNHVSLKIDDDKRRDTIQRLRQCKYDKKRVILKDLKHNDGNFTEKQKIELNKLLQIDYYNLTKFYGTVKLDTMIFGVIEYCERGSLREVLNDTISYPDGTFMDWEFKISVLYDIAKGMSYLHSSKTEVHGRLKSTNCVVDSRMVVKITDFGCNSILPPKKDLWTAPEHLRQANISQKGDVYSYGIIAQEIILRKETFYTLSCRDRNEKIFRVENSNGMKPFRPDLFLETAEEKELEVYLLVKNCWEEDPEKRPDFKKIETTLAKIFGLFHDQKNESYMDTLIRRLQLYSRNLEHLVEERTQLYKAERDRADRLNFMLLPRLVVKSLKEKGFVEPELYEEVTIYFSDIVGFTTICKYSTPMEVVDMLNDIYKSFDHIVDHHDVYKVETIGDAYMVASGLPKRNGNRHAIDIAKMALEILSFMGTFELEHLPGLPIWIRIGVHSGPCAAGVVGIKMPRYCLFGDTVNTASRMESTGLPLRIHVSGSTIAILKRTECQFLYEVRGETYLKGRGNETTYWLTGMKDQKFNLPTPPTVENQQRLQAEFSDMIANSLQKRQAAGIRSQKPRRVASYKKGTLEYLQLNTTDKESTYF

SMILES: CC(C)C[C@H](NC(=O)[C@@H]1CSSC[C@@H]2NC(=O)[C@H](CC(C)C)NC(=O)[C@H](CCC(=O)O)NC(=O)[C@@H](NC(=O)[C@H](CC(=O)O)NC(=O)[C@H](CC(=O)O)NC(=O)[C@@H](N)CC(N)=O)CSSC[C@H](NC(=O)[C@H](C)NC(=O)[C@H](C(C)C)NC(=O)[C@H](CC(N)=O)NC(=O)[C@H](C(C)C)NC2=O)C(=O)N[C@@H]([C@@H](C)O)C(=O)NCC(=O)N1)C(=O)O (single isomer, unassigned) [huUgnA, Asn Asp Asp Cys Glu Leu Cys Val Asn Val Ala Cys Thr Gly Cys Leu, reference compound]
- single effective dose, cumulative sodium excretion ([1]; FIG. 6B, lower or higher doses not different from control): 25 nmol/kg
- FENa (fractional sodium excretion) ([1]; huUgnA 12 nmol, Infuse): 0.10 ± 0.02 % of filtered
- UNaV (sodium excretion) ([1]; huUgnA 12 nmol, Infusion): 118.1 ± 25 nEq/min/g KW
- FENa (fractional sodium excretion) ([1]; huUgnA 12 nmol, Post-infuse): 0.17 ± 0.02 % of filtered
- UNaV (sodium excretion) ([1]; huUgnA 12 nmol, Post-infuse): 222 ± 33 nEq/min/g KW
- FENa (fractional sodium excretion) ([1]; huUgnA 12 nmol, Pre-infuse): 0.08 ± 0.02 % of filtered
- UNaV (sodium excretion) ([1]; huUgnA 12 nmol, Pre-infuse): 85 ± 20 nEq/min/g KW
- FENa (fractional sodium excretion) ([1]; huUgnA 25 nmol, Infuse, * p<0.05 vs time control): 0.27 ± 0.08* % of filtered
- UNaV (sodium excretion) ([1]; huUgnA 25 nmol, Infusion, * p<0.05 vs time control): 291.7 ± 77* nEq/min/g KW
- FENa (fractional sodium excretion) [1, 4]: 0.68 ± 0.08*** % of filtered
- UNaV (sodium excretion) [1, 4]: 664 ± 75*** nEq/min/g KW
- FENa (fractional sodium excretion) ([1]; huUgnA 25 nmol, Pre-infuse): 0.09 ± 0.01 % of filtered
- UNaV (sodium excretion) ([1]; huUgnA 25 nmol, Pre-infuse): 93 ± 7 nEq/min/g KW
- FENa (fractional sodium excretion) ([1]; huUgnA 50 nmol, Infuse): 0.10 ± 0.01 % of filtered
- UNaV (sodium excretion) ([1]; huUgnA 50 nmol, Infusion): 117.5 ± 22 nEq/min/g KW
- FENa (fractional sodium excretion) ([1]; huUgnA 50 nmol, Post-infuse): 0.28 ± 0.05 % of filtered
- UNaV (sodium excretion) ([1]; huUgnA 50 nmol, Post-infuse, * p<0.05 vs time control): 342 ± 63* nEq/min/g KW
- FENa (fractional sodium excretion) ([1]; huUgnA 50 nmol, Pre-infuse): 0.06 ± 0.01 % of filtered
- UNaV (sodium excretion) ([1]; huUgnA 50 nmol, Pre-infuse): 73 ± 10 nEq/min/g KW
- FENa (fractional sodium excretion) ([1]; huUgnA 100 nmol, Infuse): 0.12 ± 0.03 % of filtered
- UNaV (sodium excretion) ([1]; huUgnA 100 nmol, Infusion): 130.8 ± 32 nEq/min/g KW
- FENa (fractional sodium excretion) ([1]; huUgnA 100 nmol, Post-infuse): 0.27 ± 0.06 % of filtered
- UNaV (sodium excretion) ([1]; huUgnA 100 nmol, Post-infuse): 328 ± 80 nEq/min/g KW
- FENa (fractional sodium excretion) ([1]; huUgnA 100 nmol, Pre-infuse): 0.06 ± 0.01 % of filtered
- UNaV (sodium excretion) ([1]; huUgnA 100 nmol, Pre-infuse): 66 ± 9 nEq/min/g KW
- FENa (fractional sodium excretion) ([1]; huUgnA 200 nmol, Infuse): 0.11 ± 0.02 % of filtered
- UNaV (sodium excretion) ([1]; huUgnA 200 nmol, Infusion): 120.6 ± 18 nEq/min/g KW
- FENa (fractional sodium excretion) ([1]; huUgnA 200 nmol, Post-infuse): 0.29 ± 0.03 % of filtered
- UNaV (sodium excretion) ([1]; huUgnA 200 nmol, Post-infuse): 342 ± 51 nEq/min/g KW
- FENa (fractional sodium excretion) ([1]; huUgnA 200 nmol, Pre-infuse): 0.06 ± 0.01 % of filtered
- UNaV (sodium excretion) ([1]; huUgnA 200 nmol, Pre-infuse): 67 ± 1 nEq/min/g KW
- UNaV time course, ANOVA vs control ([1]; infusion period (p<0.05) and post infusion period (p<0.001)): significant increase
- shape of natriuretic dose-response relationship ([1]; rat, in vivo): bell-shaped
- pEC50 [2]: ~7.00
- increase in UKV during or after infusion ([3]; any dose tested): no statistically significant increases
- FEK (fractional potassium excretion) ([3]; huUgnA 12 nmol, Infuse): 29.8 ± 3.6 % of filtered
- UKV (potassium excretion) ([3]; huUgnA 12 nmol, Infusion): 1097 ± 54 nEq/min/g KW
- FEK (fractional potassium excretion) ([3]; huUgnA 12 nmol, Post-infuse): 34.9 ± 2.7 % of filtered
- UKV (potassium excretion) ([3]; huUgnA 12 nmol, Post-infuse): 1299 ± 51 nEq/min/g KW
- FEK (fractional potassium excretion) ([3]; huUgnA 12 nmol, Pre-infuse): 18.8 ± 2.3 % of filtered
- UKV (potassium excretion) ([3]; huUgnA 12 nmol, Pre-infuse): 709 ± 74 nEq/min/g KW
- FEK (fractional potassium excretion) ([3]; huUgnA 25 nmol, Infuse): 40.7 ± 3.5 % of filtered
- UKV (potassium excretion) ([3]; huUgnA 25 nmol, Infusion): 1292 ± 80 nEq/min/g KW
- FEK (fractional potassium excretion) ([3]; huUgnA 25 nmol, Post-infuse): 46.5 ± 3.8 % of filtered
- UKV (potassium excretion) ([3]; huUgnA 25 nmol, Post-infuse): 1309 ± 68 nEq/min/g KW
- FEK (fractional potassium excretion) ([3]; huUgnA 25 nmol, Pre-infuse): 25.6 ± 2.4 % of filtered
- UKV (potassium excretion) ([3]; huUgnA 25 nmol, Pre-infuse): 780 ± 69 nEq/min/g KW
- FEK (fractional potassium excretion) ([3]; huUgnA 50 nmol, Infuse): 32.0 ± 2.7 % of filtered
- UKV (potassium excretion) ([3]; huUgnA 50 nmol, Infusion): 988 ± 66 nEq/min/g KW
- FEK (fractional potassium excretion) ([3]; huUgnA 50 nmol, Post-infuse): 36.3 ± 3.6 % of filtered
- UKV (potassium excretion) ([3]; huUgnA 50 nmol, Post-infuse): 1180 ± 57 nEq/min/g KW
- FEK (fractional potassium excretion) ([3]; huUgnA 50 nmol, Pre-infuse): 20.8 ± 2.1 % of filtered
- UKV (potassium excretion) ([3]; huUgnA 50 nmol, Pre-infuse): 722 ± 52 nEq/min/g KW
- FEK (fractional potassium excretion) ([3]; huUgnA 100 nmol, Infuse): 28.0 ± 3.5 % of filtered
- UKV (potassium excretion) ([3]; huUgnA 100 nmol, Infusion): 878 ± 60 nEq/min/g KW
- FEK (fractional potassium excretion) ([3]; huUgnA 100 nmol, Post-infuse): 29.9 ± 2.9 % of filtered
- UKV (potassium excretion) ([3]; huUgnA 100 nmol, Post-infuse): 970 ± 72 nEq/min/g KW
- FEK (fractional potassium excretion) ([3]; huUgnA 100 nmol, Pre-infuse): 19.3 ± 2.5 % of filtered
- UKV (potassium excretion) ([3]; huUgnA 100 nmol, Pre-infuse): 602 ± 51 nEq/min/g KW
- FEK (fractional potassium excretion) ([3]; huUgnA 200 nmol, Infuse): 40.8 ± 7.7 % of filtered
- UKV (potassium excretion) ([3]; huUgnA 200 nmol, Infusion): 1203 ± 161 nEq/min/g KW
- UKV (potassium excretion) ([3]; huUgnA 200 nmol, Post-infuse): 1380 ± 73 nEq/min/g KW
- FEK (fractional potassium excretion) ([3]; huUgnA 200 nmol, Post-infuse, *** p<0.005 vs time control): 57.5 ± 6.7*** % of filtered
- FEK (fractional potassium excretion) ([3]; huUgnA 200 nmol, Pre-infuse): 27.7 ± 5.9 % of filtered
- UKV (potassium excretion) ([3]; huUgnA 200 nmol, Pre-infuse): 860 ± 118 nEq/min/g KW
- FEK vs control ([3]; post infusion period, only after the highest doses): increased over control levels
